The text below walks through data of patent US6054429A (priority 1996, dated 2000).

In the assay the test system is formalin flinch response in rats. Conditions: rat, in vivo.
On to `COc1ccc([C@@H]2Sc3ccccc3N(CCN(C)C)C(=O)[C@@H]2OC(C)=O)cc1` [diltiazem], for which the “effect on Phase 1 response (in words)” value is “without effect” and the “effect on Phase 2 response (in words)” value is “without effect”.
Regarding `COC(=O)C1=C(C)NC(C)=C(C(=O)OC)C1c1ccccc1[N+](=O)[O-]` [nifedipine], the “effect on Phase 1 response (in words)” value was “without effect” and the “effect on Phase 2 response (in words)” value was “without effect”.
For `COCCOC(=O)C1=C(C)NC(C)=C(C(=O)OC(C)C)C1c1cccc([N+](=O)[O-])c1` (centres unmarked) [nimodipine], the “effect on Phase 1 response (in words)” value was “without effect” and the “effect on Phase 2 response (in words)” value is “without effect”.
On to `COc1ccc(CCN(C)CCCC(C#N)(c2ccc(OC)c(OC)c2)C(C)C)cc1OC` (centres unmarked) [verapamil], for which the “effect on Phase 1 response (in words)” value was “without effect” and the “effect on Phase 2 response (in words)” value is given as “without effect”.
